Assay results from patent US8609666B2, “2-morpholino-pyrido[3,2-D]pyrimidines” (Merck Serono SA, priority 2009, dated 2013).

test system: Human recombinant GST-PI3K; test: PI3K induced-lipid phosphorylation scintillation proximity assay (neomycin-coated SPA beads); format: biochemical; conditions: amount necessary to achieve 50% inhibition of PI3K; 120 min at room temperature
Source text: The efficacy of compounds of the invention in inhibiting the PI3K induced-lipid phosphorylation may be tested in the following binding assay. The assay combines the scintillation proximity assay technology (SPA, Amersham) with the capacity of neomycin (a polycationic antibiotic) to bind phospholipids with high affinity and specificity. The Scintillation Proximity Assay is based on the properties of weakly emitting isotopes (such as ^3H, ^125I, ^33P). Coating SPA beads with neomycin allows the detection of phosphorylated lipid substrates after incubation with recombinant PI3K and radioactive ATP in the same well, by capturing the radioactive phospholipids to the SPA beads through their specific binding to neomycin. To a 96 wells MTP containing 10 μl of the test compound of Formula (I) (solubilized in 10% DMSO; to yield a concentration of 100, 25, 5.0, 1.25, 0.312, 0.078, 0.0195, 0.00488, 0.00122 and 0.0003 μM of the test compound), the following assay components are added: 1) 10 μL of lipid micelles 2) […] of Kinase buffer ([^33P]γATP162 μM/300 nCi, MgCl2 2.5 mM, DTT 2.5 mM, Na3VO4 25 μM in Hepes 40 mM, pH 7.4) and 3) 10 μL (100 ng) of Human recombinant GST-PI3K (in Hepes 40 mM, pH 7.4, ethylenglycol 4%). After incubation at room temperature for 120 minutes, with gentle agitation, the reaction is stopped by addition of 200 μL of a solution containing 250 μg of neomycin-coated PVT SPA beads, ATP 60 mM and EDTA 6.2 mM in PBS. The assay is further incubated at room temperature for 60 minutes with gentle agitation to allow binding of phospholipids to neomycin-SPA beads. After precipitation of the neomycin-coated PVT SPA beads for 5 minutes at 1500×g, radioactive PtdIns(3)P is quantified by scintillation counting in a Wallac MicroBeta™ plate counter. The values indicated in Table I below refer to the IC50 (μM) with respect to PI3K, i.e. the amount necessary to achieve 50% inhibition of said target. Said values show a considerable inhibitory potency of pyridopyrimidine compounds with regard to PI3K.

IC50	SMILES
564 nM	CN(C)CCN(C)c1cc(C(=O)O)nc2c(-c3cc(F)ccc3O)nc(N3CCOCC3)nc12 [Example 32, 8-[[2-(Dimethylamino)ethyl](methyl)amino]-4-(5-fluoro-2-hydroxyphenyl)-2-morpholin-4-ylpyrido[3,2-d]pyrimidine-6-carboxylic acid]
9 nM	COCCN(C)c1cc(C(=O)O)nc2c(-c3cccc(F)c3O)nc(N3CCOCC3)nc12 [Example 33, 4-(3-Fluoro-2-hydroxyphenyl)-8-[(2-methoxyethyl)(methyl)amino]-2-morpholin-4-ylpyrido[3,2-d]pyrimidine-6-carboxylic acid]
48 nM	CNc1cc(C(=O)O)nc2c(-c3cccc(F)c3O)nc(N3CCOCC3)nc12 [Example 35, 4-(3-Fluoro-2-hydroxyphenyl)-8-(methylamino)-2-morpholin-4-ylpyrido[3,2-d]pyrimidine-6-carboxylic acid]
18 nM	COCCNc1cc(C(=O)O)nc2c(-c3cccc(F)c3O)nc(N3CCOCC3)nc12 [Example 36, 4-(3-Fluoro-2-hydroxyphenyl)-8-[(2-methoxyethyl)amino]-2-morpholin-4-ylpyrido[3,2-d]pyrimidine-6-carboxylic acid]
10 nM	CN(CCO)c1cc(C(=O)O)nc2c(-c3cccc(F)c3O)nc(N3CCOCC3)nc12 [Example 37, 4-(3-Fluoro-2-hydroxyphenyl)-8-[(2-hydroxyethyl)(methyl)amino]-2-morpholin-4-ylpyrido[3,2-d]pyrimidine-6-carboxylic acid]
43 nM	O=C(O)c1cc(NCCO)c2nc(N3CCOCC3)nc(-c3cccc(F)c3O)c2n1 [Example 38, 4-(3-Fluoro-2-hydroxyphenyl)-8-[(2-hydroxyethyl)amino]-2-morpholin-4-ylpyrido[3,2-d]pyrimidine-6-carboxylic acid]
26 nM	CS(=O)(=O)c1cc(C(=O)O)nc2c(-c3cccc(F)c3O)nc(N3CCOCC3)nc12 [Example 39]
144 nM	CNc1cc(C(=O)O)nc2c(-c3cccc(O)c3)nc(N3CCOCC3)nc12 [Example 40, 4-(3-Hydroxyphenyl)-8-(methylamino)-2-morpholin-4-ylpyrido[3,2-d]pyrimidine-6-carboxylic acid]
63 nM	O=C(O)c1ccc2nc(N3CCOCC3)nc(-c3cccc(O)c3)c2n1 [Example 41, 4-(3-Hydroxyphenyl)-2-morpholin-4-ylpyrido[3,2-d]pyrimidine-6-carboxylic acid]
23 nM	CN(C)c1cc(C(=O)O)nc2c(-c3ccccc3O)nc(N3CCOCC3)nc12 [Example 42, 8-(Dimethylamino)-4-(2-hydroxyphenyl)-2-morpholin-4-ylpyrido[3,2-d]pyrimidine-6-carboxylic acid]
459 nM	CN(C)CCN(C)c1cc(C(=O)O)nc2c(-c3ccccc3O)nc(N3CCOCC3)nc12 [Example 43, 8-[[2-(Dimethylamino)ethyl](methyl)amino]-4-(2-hydroxyphenyl)-2-morpholin-4-ylpyrido[3,2-d]pyrimidine-6-carboxylic acid]
82 nM	O=C(O)c1cc(NCCO)c2nc(N3CCOCC3)nc(-c3ccccc3O)c2n1 [Example 44, 8-[(2-Hydroxyethyl)amino]-4-(2-hydroxyphenyl)-2-morpholin-4-ylpyrido[3,2-d]pyrimidine-6-carboxylic acid]
335 nM	CS(=O)(=O)c1cc(C(=O)O)nc2c(-c3ccc(O)c(F)c3)nc(N3CCOCC3)nc12 [Example 45, 4-(3-Fluoro-4-hydroxyphenyl)-8-(methylsulfonyl)-2-morpholin-4-ylpyrido[3,2-d]pyrimidine-6-carboxylic acid]
346 nM	COCCNc1cc(C(=O)O)nc2c(-c3ccc(CO)cc3)nc(N3CCOCC3)nc12 [Example 46, 4-[4-(Hydroxymethyl)phenyl]-8-[(2-methoxyethyl)amino]-2-morpholin-4-ylpyrido[3,2-d]pyrimidine-6-carboxylic acid]
8 nM	COCCN(C)c1cc(C(=O)O)nc2c(-c3cccc(CO)c3)nc(N3CCOCC3)nc12 [Example 47, 4-[3-(Hydroxymethyl)phenyl]-8-[(2-methoxyethyl)(methyl)amino]-2-morpholin-4-ylpyrido[3,2-d]pyrimidine-6-carboxylic acid]
27 nM	O=C(O)c1cc(NCCO)c2nc(N3CCOCC3)nc(-c3cccc(CO)c3)c2n1 [Example 48, 8-[(2-Hydroxyethyl)amino]-4-[3-(hydroxymethyl)phenyl]-2-morpholin-4-ylpyrido[3,2-d]pyrimidine-6-carboxylic acid]
329 nM	CN(C)c1cc(C(=O)O)nc2c(-c3ccc(F)c(CO)c3)nc(N3CCOCC3)nc12 [Example 49, 8-(Dimethylamino)-4-[4-fluoro-3-(hydroxymethyl)phenyl]-2-morpholin-4-ylpyrido[3,2-d]pyrimidine-6-carboxylic acid]
303 nM	CN(CCO)c1cc(C(=O)O)nc2c(-c3ccc(F)c(CO)c3)nc(N3CCOCC3)nc12 [Example 50, 4-[4-Fluoro-3-(hydroxymethyl)phenyl]-8-[(2-hydroxyethyl)(methyl)amino]-2-morpholin-4-ylpyrido[3,2-d]pyrimidine-6-carboxylic acid]
62 nM	COCCN(C)c1cc(C(=O)O)nc2c(-c3ccc(F)cc3O)nc(N3CCOCC3)nc12 [Example 51, 4-(4-Fluoro-2-hydroxyphenyl)-8-[(2-methoxyethyl)(methyl)amino]-2-morpholin-4-ylpyrido[3,2-d]pyrimidine-6-carboxylic acid]
83 nM	CN(C)c1cc(C(=O)O)nc2c(-c3ccc(F)cc3O)nc(N3CCOCC3)nc12 [Example 52, 8-(Dimethylamino)-4-(4-fluoro-2-hydroxyphenyl)-2-morpholin-4-ylpyrido[3,2-d]pyrimidine-6-carboxylic acid]
412 nM	CNc1cc(C(=O)O)nc2c(-c3ccc(F)cc3O)nc(N3CCOCC3)nc12 [Example 53, 4-(4-Fluoro-2-hydroxyphenyl)-8-(methylamino)-2-morpholin-4-ylpyrido[3,2-d]pyrimidine-6-carboxylic acid]
89 nM	COCCNc1cc(C(=O)O)nc2c(-c3ccc(F)cc3O)nc(N3CCOCC3)nc12 [Example 54, 4-(4-Fluoro-2-hydroxyphenyl)-8-[(2-methoxyethyl)amino]-2-morpholin-4-ylpyrido[3,2-d]pyrimidine-6-carboxylic acid]
139 nM	CS(=O)(=O)c1cc(C(=O)O)nc2c(-c3cc(F)ccc3O)nc(N3CCOCC3)nc12 [Example 55, 4-(5-Fluoro-2-hydroxyphenyl)-8-(methylsulfonyl)-2-morpholin-4-ylpyrido[3,2-d]pyrimidine-6-carboxylic acid]
15 nM	CS(=O)(=O)c1cc(C(=O)O)nc2c(-c3cc(O)cc(F)c3)nc(N3CCOCC3)nc12 [Example 56, 4-(3-Fluoro-5-hydroxyphenyl)-8-(methylsulfonyl)-2-morpholin-4-ylpyrido[3,2-d]pyrimidine-6-carboxylic acid]
137 nM	CN(C)CCN(C)c1cc(C(=O)O)nc2c(-c3cccc4[nH]ccc34)nc(N3CCOCC3)nc12 [Example 57, 8-[[2-(Dimethylamino)ethyl](methyl)amino]-4-(1H-indol-4-yl)-2-morpholin-4-ylpyrido[3,2-d]pyrimidine-6-carboxylic acid]
936 nM	Cc1cc(O)ccc1-c1nc(N2CCOCC2)nc2c(N(C)CCO)cc(C(=O)O)nc12 [Example 58, 8-[(2-Hydroxyethyl)(methyl)amino]-4-(4-hydroxy-2-methylphenyl)-2-morpholin-4-ylpyrido[3,2-d]pyrimidine-6-carboxylic acid]
220 nM	CN(CCO)c1cc(C(=O)O)nc2c(-c3ccc(F)cc3O)nc(N3CCOCC3)nc12 [Example 59, 4-(4-Fluoro-2-hydroxyphenyl)-8-[(2-hydroxyethyl)(methyl)amino]-2-morpholin-4-ylpyrido[3,2-d]pyrimidine-6-carboxylic acid]
80 nM	CC(=O)N1CCN(c2cc(C(=O)O)nc3c(-c4cccc(O)c4)nc(N4CCOCC4)nc23)CC1 [Example 60, 8-(4-Acetylpiperazin-1-yl)-4-(3-hydroxyphenyl)-2-morpholin-4-ylpyrido[3,2-d]pyrimidine-6-carboxylic acid]
15 nM	CS(=O)(=O)N1CCN(c2cc(C(=O)O)nc3c(-c4cccc(O)c4)nc(N4CCOCC4)nc23)CC1 [Example 61, 4-(3-Hydroxyphenyl)-8-[4-(methylsulfonyl)piperazin-1-yl]-2-morpholin-4-ylpyrido[3,2-d]pyrimidine-6-carboxylic acid]
225 nM	Cc1cc(C(=O)O)nc2c(-c3cccc(O)c3)nc(N3CCOCC3)nc12 [Example 62, 4-(3-Hydroxyphenyl)-8-methyl-2-morpholin-4-ylpyrido[3,2-d]pyrimidine-6-carboxylic acid]
